Assays:
[1] = Solubility of the product in water and mineral oil; format: physicochemical
Procedure: The resulting nitro amidef was added to a 2 L Parr reactor along with 300 g methanol and 30 g of damp Raney® nickel. The reactor was purged with hydrogen. The reagents were stirred and reacted at 65° C. and 750 psig hydrogen. In a separate vessel, a blend of 400 g (2.13 mol) of nitroamide (prepared in previous example) and 431 g (5.31 mol) of formaldehyde (37% aqueous, Fisher Scientific) was prepared. The nitroamide/formaldehyde mixture was added to the reactor under stirring while maintaining 65° C. Followed by flushing with 50 g (0.62 mol) of 37% aqueous formaldehyde. The reactor contents were held at 65° C. for 2 hours followed by cooling to 25° C. The reactor was vented and the catalyst filtered off the product. After rinsing the catalyst with methanol (2×20 mL), the filtrate was concentrate under vacuum. The product was isolated and purified using vacuum distillation to provide a pale yellow liquid recovered in 75% yield from DMAA having purity >99% by GC-FID. The boiling point was determined to be 170° C. at 40 mmHg, 145° C. at 15 mmHg, and 137° C. at 10 mmHg. ^1H NMR (400 MHz, D2O): d=2.95 (s, 3H), 2.88 (s, 3H), 2.24 (m, 2H), 2.05 (s, 6H), 1.54 (m, 2H), 0.91 (s, 6H).

[2] = oral reproduction toxicity study; at doses lower than those that caused maternal toxicity; cited from earlier work
[3] = system: animals; conditions: animals ingested NMP repeatedly at lower levels; cited from earlier work
[4] = following inhalation, oral and dermal exposure in humans and animals; cited from earlier work
[5] = system: experimental animals; conditions: high levels over short time by inhalation, dermal exposure, and ingestion; cited from earlier work
[6] = system: animals; conditions: long-term oral exposures in animals; cited from earlier work

CN(C)C(=O)CCC(C)(C)N(C)C [Example 3, 4-(dimethylamino)-N,N-4-trimethylpentamide]
solubility in mineral oil ([1]; mineral oil): soluble
solubility in water ([1]; water): soluble

CN1CCCC1=O [NMP, N-methyl-2-pyrrolidone]
developmental toxicity [2]: decrease in fetal weight and malformations
adverse effects [3]: changes in body weight, liver weight, neurotoxicity, and thymus atrophy
absorption [4]: well absorbed
toxicity [5]: low toxicity
effects of long-term oral exposures [6]: increased incidence of large kidneys, kidneys diagnosed with chronic problems, fluid in the pleural cavity and small testes
